Measurements: PubChem BioAssay (NCI)
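Five concentrations, 48 hours, 96-well plates. GI50 marks 50% less growth. TGI: concentration producing complete growth inhibition.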

Columns and labels:
Assay in all cases: inhibition of tumour cell growth, NCI panel, 48 h
OVCAR-3 ovarian = tested on: OVCAR-3 ovarian
SW-620 colon = tested on: SW-620 colon
OVCAR-5 ovarian = tested on: OVCAR-5 ovarian
OVCAR-8 ovarian = tested on: OVCAR-8 ovarian
SK-MEL-2 melanoma = tested on: SK-MEL-2 melanoma
HCT-116 colon = tested on: HCT-116 colon
HT29 colon = tested on: HT29 colon
HOP-92 NSCLC = tested on: HOP-92 NSCLC
UO-31 renal = tested on: UO-31 renal
NCI/ADR-RES ovarian = tested on: NCI/ADR-RES ovarian

Row | Structure (SMILES) | GI50 (OVCAR-3 ovarian) [µM] | TGI (OVCAR-3 ovarian) [µM] | GI50 (SW-620 colon) [µM] | TGI (SW-620 colon) [µM] | GI50 (OVCAR-5 ovarian) [µM] | TGI (OVCAR-5 ovarian) [µM] | GI50 (OVCAR-8 ovarian) [µM] | TGI (OVCAR-8 ovarian) [µM] | GI50 (SK-MEL-2 melanoma) [µM] | TGI (SK-MEL-2 melanoma) [µM] | GI50 (HCT-116 colon) [µM] | TGI (HCT-116 colon) [µM] | GI50 (HT29 colon) [µM] | TGI (HT29 colon) [µM] | GI50 (HOP-92 NSCLC) [µM] | TGI (HOP-92 NSCLC) [µM] | GI50 (UO-31 renal) [µM] | TGI (UO-31 renal) [µM] | GI50 (NCI/ADR-RES ovarian) [µM] | TGI (NCI/ADR-RES ovarian) [µM]
1 | COc1ccc(N2CCN(CC(=O)N3CCN(c4nnc(-c5ccc(Cl)cc5)c(-c5ccc(Cl)cc5)n4)CC3)CC2)cc1 | 11.3 | > 100 | 46.3 | > 100 | > 100 | > 100 | 22.1 | > 100 | 25.8 | > 100 | 3.96 | > 100 | 4.03 | 43.2 | 11.1 | 30.5 | 2.8 | > 100 | > 100 | > 100
2 | CCCC1C2=C(C(=O)OC2=O)C2C(CC)CC3=C(C(=O)OC3=O)C12 (centres undefined) | – | > 100 | – | > 100 | – | > 100 | – | > 100 | – | > 100 | – | > 100 | – | > 100 | – | > 100 | – | > 100 | – | > 100
3 | CCS(=O)(=O)Nc1ccc(Oc2ccc(F)cc2F)c(-c2cn(C)c(=O)c3[nH]ccc23)c1 | 0.0402 | 19.6 | 1.65 | 25.8 | 1.29 | 34.7 | 0.253 | 43.1 | 0.761 | 15.9 | 0.0321 | 12.8 | < 0.01 | 14.1 | – | 28.3 | < 0.01 | 12 | 0.561 | 39.4
4 | CN(C)CCCn1c2c(c3ccc([N+](=O)[O-])cc3c1=O)C(=O)c1ccccc1-2 | 25.6 | 70.5 | 5.7 | > 100 | 15.3 | 49 | 17 | 49.4 | > 100 | > 100 | 6.48 | 21.8 | 3.76 | 21.3 | 9.78 | > 100 | 4.28 | 47.8 | 7.22 | 34.5
5 | CCN(CC)CCCC(C)NC(=S)N/N=C(\C)c1ccccn1 (centres undefined) | 3.87 | > 100 | 4.03 | > 100 | 4.89 | > 100 | 2.87 | > 100 | 5.54 | > 100 | 2.3 | > 100 | 5.59 | > 100 | 3.98 | > 100 | 2.51 | > 100 | 15.6 | > 100
6 | CCCCc1ccc(C(N)=O)nc1 | > 100 | > 100 | > 100 | > 100 | > 100 | > 100 | > 100 | > 100 | > 100 | > 100 | > 100 | > 100 | > 100 | > 100 | > 100 | > 100 | > 100 | > 100 | > 100 | > 100
